Data published in patent US20070141146A1, “Novel compositions” (SMITHKLINE BEECHAM PHARMCO PUERTO RICO INCORPORATE, priority 2003, published 2007).
Values after ≈ are worked out from the molar mass of the structure shown.

Assay: pH dependent solubility of Compound A
Format: physicochemical
Excerpt: The pH dependent solubility and potential rapid release in the stomach of Compound A causes difficulties in the formulation or oral dosage forms. It is desirable that release is controlled to take place over a period of hours. Such a formulation would require dosing only once a day, and this is likely to improve patient compliance.

solubility (aqueous buffer, pH 7, near neutral pH of the small intestine): ~80 µg/mL (≈ 0.224 mM)
solubility (simulated gastric fluid, pH 2, acidic regions associated with the stomach): ~5000 µg/mL (≈ 14 mM)
Compound: CN(CCOc1ccc(CC2SC(=O)NC2=O)cc1)c1ccccn1 (centres unmarked) [Compound A, 5-[4-[2-(N-methyl-N-(2 pyridyl)amino)ethoxy]benzyl]thiazolidine-2,4-dione]
